Experimental data taken from ChEMBL document CHEMBL4251555, “Synthesis, antitumor evaluation and microarray study of some new pyrazolo[3,4-d][1,2,3]triazine derivatives” (Eur J Med Chem, 2017).

Assays:
TERT-RPE1 = test: Cytotoxicity against human RPE1 cells after 48 hrs by resazurin assay; format: cell-based; conditions: RPE-1, 48 h
[1] = Selectivity index, ratio of IC50 for human RPE1 cells to IC50 for human CCRF-CEM cells; format: toxicity; conditions: RPE1 cells versus CCRF-CEM cells, read-out: Ratio IC50
PANC-1 [2] = test: Cytotoxicity against human PANC1 cells after 48 hrs by resazurin assay; format: functional, cell-based; conditions: PANC-1, 48 h
CCRF-CEM = test: Cytotoxicity against human CCRF-CEM cells after 48 hrs by resazurin assay; format: functional, cell-based
[3] = Selectivity index, ratio of IC50 for human RPE1 cells to IC50 for human PANC1 cells; format: toxicity; conditions: RPE1 cells versus PANC1 cells, read-out: Ratio IC50
[4] = Selectivity index, ratio of IC50 for human RPE1 cells to IC50 for human HuH7 cells; format: toxicity; conditions: RPE1 cells versus HuH7 cells, read-out: Ratio IC50
Huh-7 [5] = test: Cytotoxicity against human HuH7 cells after 48 hrs by resazurin assay; format: functional, cell-based; conditions: Huh-7, 48 h
PANC-1 [6] = test: Induction of apoptosis in human PANC1 cells assessed as caspase-3/7 activation after 24 hrs by Caspase-Glo assay; format: functional, cell-based
Huh-7 [7] = test: Induction of apoptosis in human HuH7 cells assessed as caspase-3/7 activation after 24 hrs by Caspase-Glo assay; format: functional, cell-based
Huh-7 [8] = test: Upregulation of UGT1A1 gene expression in human HuH7 cells after 48 hrs by micro-array analysis relative to control; format: functional
Huh-7 [9] = test: Upregulation of UGT2B7 gene expression in human HuH7 cells after 48 hrs by micro-array analysis relative to control; format: functional
Huh-7 [10] = test: Downregulation of IFI27 gene expression in human HuH7 cells after 48 hrs by micro-array analysis relative to control; format: functional
Huh-7 [11] = test: Downregulation of THBS1 gene expression in human HuH7 cells after 48 hrs by micro-array analysis relative to control; format: functional
Huh-7 [12] = test: Downregulation of GIP3 gene expression in human HuH7 cells after 48 hrs by micro-array analysis relative to control; format: functional
Huh-7 [13] = test: Upregulation of MUCDH1 gene expression in human HuH7 cells after 48 hrs by micro-array analysis relative to control; format: functional
Huh-7 [14] = test: Upregulation of UGT2B15 gene expression in human HuH7 cells after 48 hrs by micro-array analysis relative to control; format: functional
Huh-7 [15] = test: Downregulation of FSCN1 gene expression in human HuH7 cells after 48 hrs by micro-array analysis relative to control; format: functional
Huh-7 [16] = test: Upregulation of DNASE1 gene expression in human HuH7 cells after 48 hrs by micro-array analysis relative to control; format: functional
Huh-7 [17] = test: Upregulation of SLC26A3 gene expression in human HuH7 cells after 48 hrs by micro-array analysis relative to control; format: functional
Huh-7 [18] = test: Downregulation of SOCS2 gene expression in human HuH7 cells after 48 hrs by micro-array analysis relative to control; format: functional
Huh-7 [19] = test: Upregulation of UGT2B17 gene expression in human HuH7 cells after 48 hrs by micro-array analysis relative to control; format: functional
Huh-7 [20] = test: Downregulation of TAGLN gene expression in human HuH7 cells after 48 hrs by micro-array analysis relative to control; format: functional

| SMILES | IC50 (TERT-RPE1) [µM] | selectivity ratio [1] | IC50 (PANC-1 [2]) [µM] | IC50 (CCRF-CEM) [µM] | selectivity ratio [3] | selectivity ratio [4] | IC50 (Huh-7 [5]) [µM] | further results |
| --- | --- | --- | --- | --- | --- | --- | --- | --- |
| CCN/C(SC)=C(/C#N)C(=O)Nc1ccc(OCC)cc1 | > 100 | > 10.1 | 41.6 | 9.89 | > 2.4 | > 6.1 | 16.4 |  |
| C=CCNc1[nH]nc(N)c1C(=O)Nc1ccc(OCC)cc1 | > 100 | > 15.2 | 30.8 | 6.56 | > 3.2 | > 4.5 | 22 |  |
| CCOc1ccc(-n2nnc3n[nH]c(NC)c3c2=O)cc1 | > 100 | > 8.1 | 9.92 | 12.4 | > 10.1 | > 14.3 | 7.01 | Activity (PANC-1 [6]): Dose-dependent effect; Activity (Huh-7 [7]): Dose-dependent effect |
| CCNc1[nH]nc2nnn(-c3ccc(OCC)cc3)c(=O)c12 | > 100 | > 6.6 | 16.1 | 15.2 | > 6.2 | > 6.9 | 14.4 |  |
| CCOc1ccc(NC(=O)CC#N)cc1 | > 100 | > 7.1 | 43.9 | 14.1 | > 2.3 | > 4.6 | 21.5 |  |
| CCOc1ccc(NC(=O)/C(C#N)=C(\Nc2ccccc2)SC)cc1 | > 100 | > 4.9 | 49.3 | 20.3 | > 2 | > 4 | 25.3 |  |
| CCOc1ccc(-n2nnc3n[nH]c(Nc4ccccc4)c3c2=O)cc1 | > 100 | > 16.9 | 13.1 | 5.92 | > 7.6 | > 10.6 | 9.39 |  |
| CCOc1ccc(NC(=O)/C(C#N)=C(\NC23CC4CC(CC(C4)C2)C3)SC)cc1 | > 100 | > 5.7 | 23.7 | 17.6 | > 4.2 | > 10 | 10 |  |
| CCOc1ccc(NC(=O)/C(C#N)=C(\NC)SC)cc1 | > 100 | > 10.1 | 26.4 | 9.94 | > 3.8 | > 17.3 | 5.78 | Activity (PANC-1 [6]): Dose-dependent effect; Activity (Huh-7 [7]): Dose-dependent effect |
| CCOc1ccc(NC(=O)c2c(N)n[nH]c2NC)cc1 | > 100 | > 12.7 | 31 | 7.9 | > 3.2 | > 4.6 | 21.8 |  |
| C=CCN/C(SC)=C(/C#N)C(=O)Nc1ccc(OCC)cc1 | > 100 | > 5.4 | 21.8 | 18.5 | > 4.6 | > 11.3 | 8.85 | Activity (PANC-1 [6]): Dose-dependent effect; Activity (Huh-7 [7]): Dose-dependent effect |
| CCOc1ccc(NC(=O)c2c(N)n[nH]c2Nc2ccccc2)cc1 | 67.8 | 15.1 | 21 | 4.47 | 3.2 | 15.7 | 4.32 |  |
| CCOc1ccc(-n2nnc3n[nH]c(NC45CC6CC(CC(C6)C4)C5)c3c2=O)cc1 | > 100 | > 6.4 | 4.41 | 15.6 | > 22.7 | > 4.3 | 23.2 |  |
| COc1cccc2c1C(=O)c1c(O)c3c(c(O)c1C2=O)C[C@@](O)(C(=O)CO)C[C@@H]3O[C@H]1C[C@H](N)[C@H](O)[C@H](C)O1 [DOXORUBICIN] | 14 |  |  |  |  |  | 5.43 |  |
| CCNc1[nH]nc(N)c1C(=O)Nc1ccc(OCC)cc1 | > 100 | > 7.2 | 14.8 | 14 | > 6.8 | > 3.7 | 27 |  |
| CCOc1ccc(NC(=O)c2c(N)n[nH]c2NC23CC4CC(CC(C4)C2)C3)cc1 | 81.2 | 5.3 | 13.2 | 15.2 | 6.2 | 7.6 | 10.6 |  |
| C=CCNc1[nH]nc2nnn(-c3ccc(OCC)cc3)c(=O)c12 | > 100 | > 21.2 | 13.3 | 4.73 | > 7.5 | > 20.3 | 4.94 | fold change (FC) (Huh-7 [8]): >=3 - 6; fold change (FC) (Huh-7 [9]): >=3 - 6; fold change (FC) (Huh-7 [10]): >4; fold change (FC) (Huh-7 [11]): >4; fold change (FC) (Huh-7 [12]): >4; fold change (FC) (Huh-7 [13]): >=3 - 6; Activity (PANC-1 [6]): Dose-dependent effect; fold change (FC) (Huh-7 [14]): >=3 - 6; fold change (FC) (Huh-7 [15]): >4; fold change (FC) (Huh-7 [16]): >=3 - 6; fold change (FC) (Huh-7 [17]): >=3 - 6; Activity (Huh-7 [7]): Dose-dependent effect; fold change (FC) (Huh-7 [18]): >4; fold change (FC) (Huh-7 [19]): >=3 - 6; fold change (FC) (Huh-7 [20]): >4 |
